Data: patent publication US20260364101A1, “OLEUROPEIN IN THE MANAGEMENT OF CANCER” (FUNDACIÓN MIGUEL SERVET, priority 2023, published 2026)
“Also recorded” adds a separate entry of the source.

What was measured:
Assay type in all cases: cell-based, mouse
TAMs [1] = assay: ex vivo differentiated TAMs treated with compound, marker expression by flow cytometry (FIG. 1b); conditions: oleuropein 50 μM
Procedure: (§1) Immunosuppressive myeloid cell subsets resembling tumor-infiltrating subsets (g-MDSCs, m-MDSCs and TAMs) were differentiated from mouse bone marrow following published procedures using conditioning medium produced by LLC tumor cells stably expressing GMCSF and MCSF cells. g- and m-MDSCs were purified using the myeloid-derived suppressor cell isolation kit (Miltenyi Biotec, Bergisch, Germany) according to manufacturer's recommendations. MDSCs and TAMs were seeded with 500 nM BML-275 or 50 μM oleuropein and incubated for seven days.
Surface and intracellular staining were carried out as described before with the following fluorochrome-conjugated antibody clones: AF488 anti-CD49d (R1-2), PE anti-CD4 (GK1.5), APCanti-CD8(53-6.7), brilliant Violet 510™ anti-I-A/I-E (M5/114.15.2,PE/Cyanine7anti-Ly-6G (1A8), and APC anti-CD80 (16-10A1) (Biolegend), FITC anti-IL-12 (C15.6) and BV421 anti-IL-2 (JES6-5H4) (BD Bioscience), APC-Vio® 770 anti-Ly-6C (REA796), PE REAfinity™ anti-F4/80 (REA126), and APC anti-CD68 (REA886) (Miltenyi), PerCP-Cyanine5.5 Anti-Human/Mouse CD11b (M1/70) (Tonbo), and AF488 anti-IFNγ (Clone XMG1.2) (BD Pharmigen). For human cells, it was used the following fluorochrome-conjugated antibodies: PerCP-Cy5.5-anti-CD11b (integrina alfa M) (M1/70), Violet Fluor 450 anti-CD14 antibody (61D3) (Tonbo), PE anti-CD115 (CSF-1R) (9-4D2-1E4) (Biolegend), PE-Cy™7 anti-CD11c (Clone B-ly6) (BD Bioscience), and APC anti-HLA-DR (REA517) (Miltenyi).
Data were collected using the FACSCanto Flow Cytometer (BD Biosciences) for ex vivo and in vitro experiments at Navarrabiomed Biomedical Research Center and Cyroflex LX flow cytometer (Beckman Counter). Data were analyzed with Flowjo.

TAMCs = assay: quantitative proteomics and Ingenuity Pathway Analysis of TAMCs (FIG. 2)
Procedure: as §1
(§2) A unique proteomic experiment was carried out with five biological replicates per sample (m-MDSC, g-MDSC and TAM). Cells were homogenized in a lysis buffer containing 7 M urea, 2 M thiourea 50 mM DTT. The homogenates were spun down at 14000 g for 1 h at 15 °C. Before proteomic analysis, protein extracts were diluted with Laemmli sample buffer in 100 μL and loaded into a 0.75 mm thick polyacrylamide gel with a 4% stacking gel casted over a 12.5% resolving gel. The run was stopped as soon as the front entered 3 mm into the resolving gel so that the whole proteome became concentrated in the stacking/resolving gel interface. Bands were stained with Coomassie Brilliant Blue, excised from the gel and protein enzymatic cleavage was carried out with trypsin (Promega; 1:20, w/w) at 37 °C for 16 h as previously described. Purification and concentration of peptides was performed using C18 Zip Tip Solid Phase Extraction (Millipore).
(§3) Peptide mixtures were separated by reverse phase chromatography using an UltiMate 3000 UHLPC System (Thermo Scientific) fitted with an Aurora packed emitter column (lonopticks, 25 cm×75 μm ID, 1.6 μm C18). Samples were first loaded for desalting and concentration into an Acclaim PepMap column (ThermoFisher, 0.5 cm×300 μm ID, 5 μm C18) packed with the same chemistry as the separating column. Mobile phases were 100% water 0.1% formic acid (FA) (buffer A) and 100% Acetonitrile 0.1% FA (buffer B). Column gradient was developed in a 120 min two step gradient from 5% B to 20% B in 90 min and 20% B to 32% B in 30 min. Column was equilibrated in 95% B for 10 min and 5% B for 20 min. During the whole process, the precolumn was in line with the column and the flow maintained all along the gradient at 300 nl/min. The column temperature was maintained at 40 °C using an integrated column oven (PRSO-V2, Sonation, Biberach, Germany) and interfaced online with the Orbitrap Exploris 480 MS. Spray voltage were set to 2 kV, funnel RF level at 40, and heated capillary temperature at 300 °C. For DDA experiments full MS resolutions were set to […] at m/z 200 and full MS AGC target was set to Standard with an IT mode Auto. Mass range was set to 375-1500. AGC target value for fragment spectra was set to Standard with a resolution of 15,000 and 3 seconds for cycle time. The intensity threshold was kept at 8E3. Isolation width was set at 1.4 m/z. Normalized collision energy was set at 30%. All data were acquired in centroid mode using positive polarity and peptide match was set to off, and isotope exclusion was on.
(§4) Raw files were processed with MaxQuant v1.6.17.0 using the integrated Andromeda Search engine. All data were searched against a target/decoy version of the mouse Uniprot Reference Proteome with March 2021 release. First search peptide tolerance was set to 20 ppm, main search peptide tolerance was set to 4.5 ppm. Fragment mass tolerance was set to 20 ppm. Trypsin was specified as enzyme, […] carbamidomethylation of cysteine was specified as fixed modification and peptide N-terminal acetylation, oxidation of methionine, deamidation of asparagine and glutamine and pyro-glutamate formation from glutamine and glutamate were considered variable modifications with a total of two variable modifications per peptide. […]

m-MDSC = assay: quantitative proteomics and Ingenuity Pathway Analysis of m-MDSC
Procedure: as §1, §2, §3, §4

TAMs [2] = assay: quantitative proteomics and Ingenuity Pathway Analysis of TAM
Procedure: as §1, §2, §3, §4

[3] = IPA, TAMCs, listed as Oleuropein

In the case of `C/C=C1/[C@H](O[C@@H]2O[C@H](CO)[C@@H](O)[C@H](O)[C@H]2O)OC=C(C(=O)OC)[C@H]1CC(=O)OCCc1ccc(O)c(O)c1` [oleuropein], the “cells co-expressing MHC-II and CD80” value (TAMs [1]; BML-275 500 nM, TAMs) is reported as “significant elevation”, the “polarization of TAMs” value (TAMs [1]) is reported as “polarized MDSCs and TAMs into activated myeloid cells; also recorded: polarized TAMs to activated macrophages” and the IL-12 production (TAMs [1]; TAMs) is reported as “upregulated IL-12 production only in the presence of oleuropein”. For the same compound, the CD40 (TAMCs; IPA, TAMCs) was “down-regulated”, the “Fatty acid β-oxidation I signalling” value (TAMCs; IPA, TAMCs) was “up-regulated; also recorded: Regulated expression” and the IL-9 signalling (TAMCs; IPA, TAMCs) was “down-regulated”. The LXR/RXR signalling (TAMCs; IPA, TAMCs) was “up-regulated; also recorded: Regulated expression”, the RAN signalling (TAMCs; IPA, TAMCs) was “down-regulated” and the TREM1 (TAMCs; IPA, TAMCs) was “inhibition; also recorded: inhibited”. The “cyclic adenosine monophosphate (cAMP) pathway” value (TAMCs; IPA, TAMCs) was “inhibition; also recorded: inhibited”, the estrogen signalling (TAMCs; IPA, TAMCs) was “downregulated” and the “global reprogramming of TAMCs / immunosuppressive pathways” value (TAMCs; IPA, TAMCs) was “major reprogramming of intracellular pathways; also recorded: reprograms the immunosuppressive properties of TAMCs; also recorded: major global reprogramming of TAMCs by deactivating immunosuppressive pathways”. The insulin signalling (TAMCs; IPA, TAMCs) was “downregulated”, the “pathways regulating lipid metabolism (Sirtuin, polyamines, PPAR-a/RXR-a)” value (TAMCs; IPA, TAMCs) was “altered” and the TREM1 (TAMCs; [3]) was “reduced”. For the same compound, the “cyclic adenosine monophosphate (cAMP) pathway” value (TAMCs; [3]) was “down-regulated”, the proteomic profile (TAMCs; oleuropein-treated vs untreated, FDR<1%) was “distinct proteomic profiles” and the BAG2 signalling (m-MDSC; IPA, m-MDSC) was “activated”. The EIF2 signalling (m-MDSC; IPA, m-MDSC) was “activated”, the FAT10 signalling (m-MDSC; IPA, m-MDSC) was “down-modulated” and the “NRF2-mediated oxidative stress response” value (m-MDSC; IPA, m-MDSC) was “downregulated”. The “granzyme A signalling” value (m-MDSC; IPA, m-MDSC) was “activated”, the “production of proinflammatory cytokines” value (m-MDSC; IPA, m-MDSC) was “down-modulated” and the sirtuin signalling (m-MDSC; IPA, m-MDSC) was “activated”. The “upstream regulator PTEN” value (m-MDSC; IPA, m-MDSC) was “increase”, the upstream regulator methylprednisolone (m-MDSC; IPA, m-MDSC) was “decrease” and the “effect over m-MDSC intracellular regulatory pathways” value (m-MDSC; m-MDSC) was “potent effect over m-MDSC intracellular regulatory pathways”. For the same compound, the proteins differentially regulated (m-MDSC; m-MDSC treated with oleuropein, data not shown) was 912 proteins, the “activated macrophages and pro-inflammatory activities of macrophages” value (TAMs [2]) was “enhances” and the BAG2 signalling (TAMs [2]; IPA) was “downregulated”. For the same compound, the EIF2 signalling (TAMs [2]; IPA) was “upregulated”, the Flt3 signalling (TAMs [2]; IPA) was “upregulated” and the “For-mediated (Fcr-mediated) phagocytosis signalling” value (TAMs [2]; IPA) was “upregulation”. For the same compound, the Hif1a signalling (TAMs [2]; IPA) was “downregulated”, the fmlp signalling (TAMs [2]; IPA) was “upregulated” and the immunosuppressive markers (TAMs [2]; IPA) was “downregulation”. For the same compound, the mTOR signalling (TAMs [2]; IPA) was “downregulated” and the “For-mediated (Fcr-mediated) phagocytosis signalling” value (TAMs [2]; IPA, listed as Oleuropein) was “upregulated”.
